Test results: patent US10071089B2 (Euro-Celtique S.A., priority 2013, dated 2018)

How the values were obtained:
[1] = tested on: bacteria of different phyla in the small intestine; assay: Analysis of the contents of the small intestine (bacterial phyla)
Experimental: (§1) The small intestine, caecum, and colon were cut longitudinally. The contents of each were individually collected into separate containers with a small spatula or similar instrument, taking care to cause as little injury to the tissue as possible. The weight of the contents collected from each portion was recorded. The weights of the small intestine, caecum, and colon following removal of the contents were also recorded. Collected luminal contents samples were then frozen in liquid nitrogen. Luminal contents samples were then placed on dry ice before transfer to a −80° C. freezer.
The contents of the small intestine of the different groups were obtained as described above.

[2] = Body weights over 7 days of dosing; type: in vivo, mice; settings: 10 mg/kg oxycodone or 10 mg/kg oxycodone/5 mg/kg naloxone, oral gavage
Experimental: (§2) Animals were administered the dose by oral gavage three times a day (˜4 hours apart) for 7 days and once on the 8th day. Prior to the first dose administration of the day, the dose formulation vials designated for that day were removed from the refrigerator, briefly mixed, and allowed to come to room temperature, where the vials remained throughout the day. After the third dose on day 7, all animals fasted through euthanasia. The dose volume was based on the animal's body weight on Day 1. Dose volume was recorded.
Individual body weights were recorded prior to administration of the first dose on Day 1. The body weight determinations prior to Day 1 dose administration was used to determine the dose administered for all subsequent doses. Subsequent body weights were recorded daily after the 2nd dose of the day on Days 2 through 7.

[3] = tested on: male C57BL/6 RAG1-/- knockout mice; assay: Charcoal test of intestinal motility (GI transit); type: in vivo; settings: charcoal meal; oral gavage three times a day for 7 days and once on 8th day; Oxy 10 mg/kg, Oxy/Nal 10/5.0 mg/kg
Experimental: Male mice of the strain C57BL/6 RAG −/− (Taconic Model 4175-M, Taconic Laboratories) with an approximal weight at arrival of 20±7 g at an approximal age of 5 to 10 weeks were used in the present study.
The formulations were prepared on Day 0 and used for Day 1 to Day 8 dosing. Sterile water was used as vehicle. Each of the two dose formulations was transferred into eight individual sterile vials through sterilization filters, one designated for each day of dosing. The dose formulations were stored refrigerated and protected from light.
as §2, with “recorded. […]” for “recorded.”
Thirty minutes after charcoal delivery, animals were euthanized by an overdose of CO2. […] Its full length and the length of charcoal meal traveled were measured in centimeters. Intestinal transit was expressed as the percentage of intestine length containing the meal, i.e. 100×(pylorus to meal front/pylorus to caecum length). […]

[4] = tested on: bacteria of different phyla in the colon; assay: Analysis of the colon contents (bacterial phyla); settings: phylum levels, FIG. 9; G1 untreated, G3 vehicle, G6, G7
Experimental: as §1

[5] = tested on: bacteria in the mesenteric lymph nodes; assay: Colony forming units in mesenteric lymph nodes (bacterial translocation); type: in vivo, mice; settings: blood and BHI agar; aerobic, anaerobic, CO2; G6 oxycodone, G7 oxycodone/naloxone
Experimental: Following euthanasia, the abdomen was opened. The mesenteric root was presented and the mesenteric net unfolded. The mesenteric lymph nodes (MLNs) were removed and surrounding fat was removed. The MLNs were then weighed into sterilized tubes. Following weighing, the MLNs were frozen in liquid nitrogen. Following freezing, the MLNs were placed on dry ice prior to storage in a −70° C. freezer […].
MLNs were obtained as indicated above and the amount of bacteria in the MLNs was analyzed by determining colony forming units (CFUs) per g MLN in different media and under different conditions as indicated in FIG. 7. Contaminated samples were not taken into account (contaminated samples in the different groups: 1 in G1, 1 in G3, 2 in G6 and 3 in G7). The statistical analysis was performed using one way ANCOVA.

[6] = small intestine, n=7 for G6, n=4 for G7

COc1ccc2c3c1O[C@H]1C(=O)CC[C@@]4(O)[C@@H](C2)N(C)CC[C@]314 [oxycodone]
bacterioides in small intestine, G6-group compared to G7-group ([1]; phylum levels, FIG. 8): clear decrease | proteobacteria in small intestine, G6-group compared to G7-group ([1]; phylum levels, FIG. 8): clear increase | mice with completely (dramatically) altered small intestine microbiome composition [1, 6]: 2/7 | mice with pathogenic populations such as proteobacteria in small intestine [1, 6]: 5/7 | average percentage body weight loss [2]: 4.17% | reduction of GI transit compared to vehicle [3]: 67% | proteobacteria in colon compared to the remaining groups [4]: increase | CFUs in MLNs (bacterial translocation into mesenteric lymph nodes) [5]: Increased CFUs
